From ChEMBL document CHEMBL1201862, “PubChem BioAssay data set” (2004)
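Step 1: Grow cells in 96-well plates. Step 2: Expose to compound for 48 hours at 5 concentrations. Step 3: Interpolate endpoints linearly; if unreached, use highest concentration. At the GI50, growth is halved.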 Active and inactive are the calls of the source. Cut-off read from the data, not from the text of the source: active = GI50 up to about 1.1 µM and inactive = higher.

Legend:
Assay in all cases: NCI-60 cell line screen, 48 h
[1] = system: COLO 205
[2] = system: SW-620
[3] = system: NCI-H226
[4] = system: CAKI-1
[5] = system: UACC-62
[6] = system: K562
[7] = system: SN12C
[8] = system: 786-0
[9] = system: SF-268
[10] = system: NCI-H23
[11] = system: CCRF-CEM
[12] = system: SK-MEL-28
[13] = system: KM12
[14] = system: M14
[15] = system: HCT-116
[16] = system: SNB-78
[17] = system: NCI-H460
[18] = system: A498
[19] = system: NCI/ADR-RES
[20] = system: BT-549

| Compound | GI50 [1] | GI50 [2] | GI50 [3] | GI50 [4] | GI50 [5] | GI50 [6] | GI50 [7] | GI50 [8] | GI50 [9] | GI50 [10] | GI50 [11] | GI50 [12] | GI50 [13] | GI50 [14] | GI50 [15] | GI50 [16] | GI50 [17] | GI50 [18] | GI50 [19] | GI50 [20] |
| --- | --- | --- | --- | --- | --- | --- | --- | --- | --- | --- | --- | --- | --- | --- | --- | --- | --- | --- | --- | --- |
| CN(CCc1ccccn1)/[N+]([O-])=N/O.CNCCc1ccccn1 | > 100 µM (inactive) | > 100 µM (inactive) | > 100 µM (inactive) | > 100 µM (inactive) | > 100 µM (inactive) | > 100 µM (inactive) | > 100 µM (inactive) | > 100 µM (inactive) | > 100 µM (inactive) | > 100 µM (inactive) | > 100 µM (inactive) | > 100 µM (inactive) | > 100 µM (inactive) | > 100 µM (inactive) | > 100 µM (inactive) | > 100 µM (inactive) | > 100 µM (inactive) |  |  |  |
| CCCCCCCCCCCCCCCCOCC(CN(C)CCN(C)C)OCCCCCCCCCCCCCCCC (stereo not given) | > 100 µM (inactive) | > 100 µM (inactive) | > 100 µM (inactive) | > 100 µM (inactive) | > 100 µM (inactive) | > 100 µM (inactive) | > 100 µM (inactive) | > 100 µM (inactive) | > 100 µM (inactive) | > 100 µM (inactive) | > 100 µM (inactive) | > 100 µM (inactive) | > 100 µM (inactive) | > 100 µM (inactive) | > 100 µM (inactive) | > 100 µM (inactive) | > 100 µM (inactive) | > 100 µM (inactive) |  |  |
| Cc1ccc(S(=O)(=O)NC(=O)NC23CC4CC(CC(F)(C4)C2)C3)cc1 | > 100 µM (inactive) | > 100 µM (inactive) |  |  | > 100 µM (inactive) | > 100 µM (inactive) |  | > 100 µM (inactive) |  | > 100 µM (inactive) | > 100 µM (inactive) | > 100 µM (inactive) | > 100 µM (inactive) | > 100 µM (inactive) | > 100 µM (inactive) | > 100 µM (inactive) | > 100 µM (inactive) | > 100 µM (inactive) |  |  |
| Clc1ccc(-n2nnc(C3=NCCN3)c2-c2ccccc2)cc1 | > 100 µM (inactive) | > 100 µM (inactive) | > 100 µM (inactive) | > 100 µM (inactive) | > 100 µM (inactive) | > 100 µM (inactive) | > 100 µM (inactive) | > 100 µM (inactive) | > 100 µM (inactive) | > 100 µM (inactive) | > 100 µM (inactive) | > 100 µM (inactive) | > 100 µM (inactive) | > 100 µM (inactive) | > 100 µM (inactive) | > 100 µM (inactive) | > 100 µM (inactive) | > 100 µM (inactive) |  |  |
| COc1cc(CC2c3cc(OC)c(OC)cc3CCN2C)ccc1O (stereo not given) |  | > 100 µM (inactive) |  | > 100 µM (inactive) |  | > 100 µM (inactive) | > 100 µM (inactive) | > 100 µM (inactive) | > 100 µM (inactive) | > 100 µM (inactive) | > 100 µM (inactive) | > 100 µM (inactive) | > 100 µM (inactive) | > 100 µM (inactive) | > 100 µM (inactive) | > 100 µM (inactive) | > 100 µM (inactive) | > 100 µM (inactive) |  |  |
| O[C@]12c3ccccc3C1CCCC2N1CCOCC1 (stereo not given in full) | > 100 µM (inactive) | > 100 µM (inactive) | > 100 µM (inactive) |  | > 100 µM (inactive) | > 100 µM (inactive) | > 100 µM (inactive) | > 100 µM (inactive) | > 100 µM (inactive) | > 100 µM (inactive) | > 100 µM (inactive) | > 100 µM (inactive) | > 100 µM (inactive) | > 100 µM (inactive) | > 100 µM (inactive) | > 100 µM (inactive) | > 100 µM (inactive) |  |  |  |
| O=C(c1ccc(Cl)cc1)c1ccc(OCCCOc2ccc(C(=O)c3ccc(Cl)cc3)cc2Cl)c(Cl)c1 | > 100 µM (inactive) | > 100 µM (inactive) | > 100 µM (inactive) | > 100 µM (inactive) | > 100 µM (inactive) | > 100 µM (inactive) | > 100 µM (inactive) | > 100 µM (inactive) |  | > 100 µM (inactive) | > 100 µM (inactive) | > 100 µM (inactive) | > 100 µM (inactive) | > 100 µM (inactive) | > 100 µM (inactive) | > 100 µM (inactive) | > 100 µM (inactive) |  |  |  |
| CSc1n[n+]2c(s1)SCCC2 | 20.2 µM (inactive) | 66.1 µM (inactive) |  | 31.9 µM (inactive) | > 100 µM (inactive) | > 100 µM (inactive) | > 100 µM (inactive) | > 100 µM (inactive) | 80.2 µM (inactive) | > 100 µM (inactive) | > 100 µM (inactive) | > 100 µM (inactive) | 44.7 µM (inactive) | > 100 µM (inactive) | > 100 µM (inactive) | > 100 µM (inactive) | > 100 µM (inactive) |  |  |  |
| COC(=O)C(C(=O)C(=O)Nc1ccc(OC)cc1[N+](=O)[O-])c1nc2cc(C)c(C)cc2nc1O (stereo not given) | > 100 µM (inactive) | > 100 µM (inactive) | > 100 µM (inactive) | > 100 µM (inactive) | > 100 µM (inactive) | 31.6 µM (inactive) | > 100 µM (inactive) | > 100 µM (inactive) | > 100 µM (inactive) | > 100 µM (inactive) | > 100 µM (inactive) | > 100 µM (inactive) |  | > 100 µM (inactive) | > 100 µM (inactive) | > 100 µM (inactive) | > 100 µM (inactive) | > 100 µM (inactive) |  |  |
| CNC(=O)CCCNC(=O)CCCC(=O)OC | > 100 µM (inactive) | > 100 µM (inactive) | > 100 µM (inactive) | > 100 µM (inactive) | > 100 µM (inactive) | > 100 µM (inactive) | > 100 µM (inactive) | > 100 µM (inactive) | > 100 µM (inactive) | > 100 µM (inactive) | > 100 µM (inactive) | > 100 µM (inactive) | > 100 µM (inactive) | > 100 µM (inactive) | > 100 µM (inactive) |  | > 100 µM (inactive) | > 100 µM (inactive) | > 100 µM (inactive) | > 100 µM (inactive) |
| COc1ccc(CNC2=Nc3ccncc3S(=O)(=O)N2c2ccccc2)cc1 | > 100 µM (inactive) | 33 µM (inactive) | 17 µM (inactive) | > 100 µM (inactive) | 40.2 µM (inactive) | 29 µM (inactive) | 80.9 µM (inactive) | 47.4 µM (inactive) | 52.4 µM (inactive) | 35.5 µM (inactive) | 19.4 µM (inactive) | 21.6 µM (inactive) | 35 µM (inactive) | 57.7 µM (inactive) | 36.5 µM (inactive) |  | 43.1 µM (inactive) | 35.9 µM (inactive) | 35.9 µM (inactive) | 23.2 µM (inactive) |
| CNC(=S)c1nnsc1N | 0.043 µM (active) | > 100 µM (inactive) | > 100 µM (inactive) | > 100 µM (inactive) | > 100 µM (inactive) | 21.7 µM (inactive) | > 100 µM (inactive) | > 100 µM (inactive) | > 100 µM (inactive) | > 100 µM (inactive) | > 100 µM (inactive) | > 100 µM (inactive) | 11.6 µM (inactive) | > 100 µM (inactive) | 66.4 µM (inactive) |  | 0.71 µM (active) | 87.3 µM (inactive) | > 100 µM (inactive) | > 100 µM (inactive) |
| C=C(CCC/C(C)=C/C=C/[C@H](C)CCCc1ccoc1)C[C@@H]1OC(=O)[C@H](C)[C@@H]1O | 12.6 µM (inactive) | 12.8 µM (inactive) | 8.18 µM (inactive) | 8.99 µM (inactive) | 7.98 µM (inactive) | 13.7 µM (inactive) | 8.79 µM (inactive) | 11.2 µM (inactive) | 9.2 µM (inactive) | 8.69 µM (inactive) | 11.9 µM (inactive) | 7.41 µM (inactive) | 9.79 µM (inactive) | 8.81 µM (inactive) | 11.5 µM (inactive) |  | 12.5 µM (inactive) | 8.53 µM (inactive) | 9.71 µM (inactive) | 8.69 µM (inactive) |
| CCOC(=O)C(=CNc1ccc(NC2=NCC(C)S2)cc1)C(=O)OCC (stereo not given) | 35.6 µM (inactive) | 31 µM (inactive) | 42.4 µM (inactive) | 45.3 µM (inactive) | 11 µM (inactive) | 0.382 µM (active) | 41 µM (inactive) | 26.1 µM (inactive) | 33.1 µM (inactive) | 28.1 µM (inactive) | 0.0908 µM (active) | 20.8 µM (inactive) | 16.6 µM (inactive) | 31.5 µM (inactive) | 35.2 µM (inactive) |  | 31.6 µM (inactive) | 28.8 µM (inactive) | 23.1 µM (inactive) | 15.2 µM (inactive) |
| NC(=O)N/N=C(\Cc1nc2ccc(Cl)cc2nc1O)C(=O)Nc1ccc(Cl)cc1Cl | > 100 µM (inactive) | > 100 µM (inactive) | 87.1 µM (inactive) | > 100 µM (inactive) | > 100 µM (inactive) | > 100 µM (inactive) | > 100 µM (inactive) | > 100 µM (inactive) | > 100 µM (inactive) | > 100 µM (inactive) | > 100 µM (inactive) | > 100 µM (inactive) | > 100 µM (inactive) | > 100 µM (inactive) | > 100 µM (inactive) |  | > 100 µM (inactive) | > 100 µM (inactive) | > 100 µM (inactive) | > 100 µM (inactive) |
| COc1cccc(/C=N/n2c(Cc3ccc(Cl)cc3)n[nH]c2=O)c1 | > 100 µM (inactive) | > 100 µM (inactive) | > 28.2 µM (inactive) | 23.4 µM (inactive) | 34.2 µM (inactive) | > 100 µM (inactive) | 24.3 µM (inactive) | 25.1 µM (inactive) | 15.9 µM (inactive) | 27.9 µM (inactive) | > 100 µM (inactive) | > 100 µM (inactive) | > 100 µM (inactive) | > 100 µM (inactive) | 47.8 µM (inactive) |  | > 91.4 µM (inactive) | 59 µM (inactive) | 30.6 µM (inactive) | 26.1 µM (inactive) |
